The values below come from US12600721B2, “TYK2 inhibitors and uses thereof” (Sudo Biosciences Limited, priority 2021, dated 2026).

The subject of experiment [1] is HEK-Blue IFNγ reporter cells. In words: HEK-Blue IFNγ reporter assay (SEAP) for determining selectivity. Type of experiment: cell-based. Conditions: 50 ng/ml human recombinant IFNγ, read-out: IFN-γ IC50 (SEAP selectivity). As to the method: (§1) HEK-Blue™ IL-2 and IFNγ reporter cells with a stably-integrated cytokine receptor and STAT5 or STAT1 express STAT-inducible secreted embryonic alkaline phosphatase (SEAP) reporter gene upon cytokine stimulation. These cells were plated in DMEM (Gibco) containing 10% heat-inactivated FBS (Gibco) and 100 U/mL PenStrep (Gibco) at 37° C. under 5% CO2 conditions for 20-22 hours. The cells were then pretreated with serially diluted test compounds for 60 min prior to stimulation with either 4 ng/ml human recombinant IL-2 (Miltenyl Biotech) or 50 ng/ml human recombinant IFNγ (InvivoGen) for 24 hours. SEAP induction was measured using the QUANTI-Blue™ Solution (InvivoGen) according to the manufacturer's instructions.
A general note: Reporter assays use an easily measured gene product as a stand-in for the process of interest.

Experiment [2] deals with TYK2 Pseudokinase (JH2). In words: HEK-Blue IL-23 reporter assay (SEAP) for profiling TYK2 pseudokinase (JH2) inhibition. It is filed as cell-based. Conditions: HEK-Blue IL-23 cells, 10 ng/mL human recombinant IL-23, SEAP reporter; read-out: IL23 IC50 (TYK2 inhibitory activity). As to the method:
(§2) HEK-Blue™ IL-23 and IFNα/β cells with a stably-integrated cytokine receptor and STAT3 or STAT1 express STAT-inducible secreted embryonic alkaline phosphatase (SEAP) reporter gene upon cytokine stimulation. These cells are plated in DMEM (Gibco) containing 10% heat-inactivated FBS (Gibco) and 100 U/mL PenStrep (Gibco) at 37° C. under 5% CO2 conditions for 20-22 hours. The cells are then pretreated with serially diluted test compounds for 60 min prior to stimulation with either 10 ng/mL human recombinant IL-23 (Miltenyl Biotech) or 1 ng/mL human recombinant IFNα (InvivoGen) for 22-24 hours for IL-23 or 16-18 h for IFNα. SEAP induction is measured using the QUANTI Blue™ Solution (InvivoGen) according to the manufacturer's instructions.

Experiment [3] deals with TYK2 Pseudokinase (JH2). In words: HEK-Blue IFNα/β reporter assay (SEAP) for profiling TYK2 pseudokinase (JH2) inhibition. Type of experiment: cell-based. Conditions: HEK-Blue IFNα/β cells, 1 ng/mL human recombinant IFNα, read-out: IFNα IC50 (TYK2 inhibitory activity). As to the method: as §2
Experiment [4] deals with T1, TYK2-JH1 (Homo sapiens, UniProt P29597).
T1 construct: using a recombinant purified His or GST-tagged catalytic domain for each enzyme; made in house
T1 sequence (P29597 897-1176 limits assumed): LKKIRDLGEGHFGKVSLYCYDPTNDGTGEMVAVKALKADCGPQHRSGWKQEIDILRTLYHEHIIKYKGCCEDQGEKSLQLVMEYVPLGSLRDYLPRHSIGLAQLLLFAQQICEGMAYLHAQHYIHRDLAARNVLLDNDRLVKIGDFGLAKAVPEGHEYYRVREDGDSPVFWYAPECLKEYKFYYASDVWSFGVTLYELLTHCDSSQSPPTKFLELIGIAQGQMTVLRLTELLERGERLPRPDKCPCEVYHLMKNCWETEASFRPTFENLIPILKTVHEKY
In words: HTRF-based selectivity assay, TYK2 catalytic domain. Conditions: kinase domain (JH1), 20 μM ATP. It is filed as biochemical. The protocol:
(§3) The ability of compounds to inhibit the activity of JAK1, JAK2, JAK3 and TYK2 is measured using a recombinant purified His or GST-tagged catalytic domain for each enzyme (JAK1, JAK2 and TYK2 are generated in-house; JAK3 was purchased from Carna biosciences, Cat #08-046) in an HTRF format biochemical assay. The reactions employs a commercial peptide substrate from Cisbio (Cat #62TK0PEC). The basic assay protocol is as follows: first, 2.5 μL of diluted compounds (4×) in DMSO are dispensed into a 384-well Optiplate. Next, 2.5 μL of enzyme (final concentrations for enzymes are: TYK2-700 ng/mL, JAK1-80.6 ng/ml, JAK2-2.1 ng/ml and JAK3-171.8 ng/mL) is added and incubated at RT for 5-20 min. Finally, 5 μl of mixture of 2×ATP [Final concentration 20 μM for TYK2, 21.43 μM for JAK1, 14.7 μM for JAK2 and 2.12 μM for JAK3]+2× Substrate [Final concentration 217 nM for TYK2, 454.7 nM for JAK1, 200 nM for JAK2 and 257.4 nM for JAK3] is added to 384 well Optiplate. Composition of Kinase assay buffer used in the assay is as follows: HEPES 50 mM, EGTA 1 mM, MgCl2 10 mM, DTT 2 mM, Tween-20 0.01% and water. Then the plates are shaken and then incubated at 26.5° C. for 60 min.
Background: Time-resolved FRET reads energy transfer from a long-lived donor to a nearby acceptor.

The subject of experiment [5] is HEK-Blue IL-2 reporter cells. In words: HEK-Blue IL-2 reporter assay (SEAP) for determining selectivity. Type of experiment: cell-based. Conditions: HEK-Blue IL-2 cells, 4 ng/ml human recombinant IL-2, SEAP reporter. As to the method:
as §1

Experiment [6] addresses T2, JAK3-JH1 (Homo sapiens, UniProt P52333).
T2 construct: using a recombinant purified His or GST-tagged catalytic domain for each enzyme; purchased Carna biosciences 08-046
The experiment can be described thus: HTRF-based selectivity assay, JAK3 catalytic domain. Conditions: kinase domain (JH1), 2.12 μM ATP. It is filed as biochemical. The protocol: as §3

Experiment [7] deals with T3, JAK1-JH1 (Homo sapiens, UniProt P23458).
T3 construct: using a recombinant purified His or GST-tagged catalytic domain for each enzyme; made in house
T3 sequence (P23458 875-1153 limits assumed): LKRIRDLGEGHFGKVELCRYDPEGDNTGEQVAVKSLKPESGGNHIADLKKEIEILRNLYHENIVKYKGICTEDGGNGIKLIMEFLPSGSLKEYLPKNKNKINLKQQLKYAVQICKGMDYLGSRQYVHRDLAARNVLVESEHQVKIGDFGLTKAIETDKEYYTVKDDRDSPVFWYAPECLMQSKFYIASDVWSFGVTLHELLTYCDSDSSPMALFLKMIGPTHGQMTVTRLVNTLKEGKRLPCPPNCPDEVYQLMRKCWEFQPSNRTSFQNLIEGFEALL
In words: HTRF-based selectivity assay, JAK1 catalytic domain. It is filed as biochemical. Conditions: kinase domain (JH1), 21.43 μM ATP. The protocol: as §3

Experiment [8] has as its target T4, JAK2-JH1 (Homo sapiens, UniProt O60674).
T4 construct: using a recombinant purified His or GST-tagged catalytic domain for each enzyme; made in house
The experiment can be described thus: HTRF-based selectivity assay, JAK2 catalytic domain. Conditions: kinase domain (JH1), 14.7 μM ATP. Type of experiment: biochemical. The protocol:
as §3

Molecules are shown by their SMILES.

T4 sequence (O60674 849-1124 limits assumed): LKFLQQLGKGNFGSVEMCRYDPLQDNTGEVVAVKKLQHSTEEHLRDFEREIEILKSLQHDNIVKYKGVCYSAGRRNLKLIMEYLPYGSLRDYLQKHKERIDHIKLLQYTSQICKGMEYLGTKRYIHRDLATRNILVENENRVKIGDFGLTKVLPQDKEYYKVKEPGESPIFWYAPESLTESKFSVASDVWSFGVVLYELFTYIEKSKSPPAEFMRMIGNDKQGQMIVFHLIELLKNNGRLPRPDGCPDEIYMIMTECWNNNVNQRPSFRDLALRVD
T2 sequence (P52333 822-1111 limits assumed): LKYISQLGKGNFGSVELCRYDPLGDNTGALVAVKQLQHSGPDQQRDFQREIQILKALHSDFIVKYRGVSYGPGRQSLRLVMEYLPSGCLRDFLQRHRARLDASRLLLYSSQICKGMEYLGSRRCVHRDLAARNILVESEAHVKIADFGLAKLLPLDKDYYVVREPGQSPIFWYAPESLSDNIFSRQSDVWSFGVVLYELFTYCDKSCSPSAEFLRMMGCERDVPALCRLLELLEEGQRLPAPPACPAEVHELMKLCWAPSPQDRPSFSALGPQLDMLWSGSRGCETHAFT

For orientation: IC50 means the concentration that inhibits the measured activity by half. As for `[2H]C([2H])([2H])NC(=O)c1nnc(NC(=O)C2CC2)cc1Nc1cccc2c1N(C)Cc1cccnc1-2` [Compound 1, 6-(cyclopropanecarboxamido)-N-(methyl-d3)-4-((6-methyl-5,6-dihydrobenzo[h][1,6]naphthyridin-7-yl)amino)pyridazine-3-carboxamide], the IC50 in experiment [1] was more than 1000 nM; in experiment [2] it was less than 30 nM; in experiment [3] it was less than 30 nM; in experiment [4], more than 1000 nM; in experiment [5], more than 1000 nM; in experiment [6] it was more than 1000 nM. Moreover, the IC50 in experiment [7] and in experiment [8] was more than 1000 nM in each case.

As for `[2H]C([2H])([2H])NC(=O)c1nnc(Nc2ccc(F)cn2)cc1Nc1cccc2c1N(C)Cc1cccnc1-2` [Compound 2, 6-((5-fluoropyridin-2-yl)amino)-N-(methyl-d3)-4-((6-methyl-5,6-dihydrobenzo[h][1,6]naphthyridin-7-yl)amino)pyridazine-3-carboxamide], the IC50 is more than 1000 nM in experiment [1]; less than 30 nM in experiment [2]; less than 30 nM in experiment [3]; more than 1000 nM in experiment [4]; more than 1000 nM in experiment [5]; more than 1000 nM in experiment [6]. The IC50 in experiment [7] and in experiment [8] was more than 1000 nM in each case.

For `[2H]C([2H])([2H])NC(=O)c1cnc(NC(=O)C2CC2)cc1Nc1cccc2c1N(C)Cc1cccnc1-2` [Compound 3, 6-(cyclopropanecarboxamido)-N-(methyl-d3)-4-((6-methyl-5,6-dihydrobenzo[h][1,6]naphthyridin-7-yl)amino)nicotinamide], the IC50 was more than 1000 nM in experiment [1]; less than 30 nM in experiment [2]; less than 30 nM in experiment [3]; more than 1000 nM in experiment [4]; more than 1000 nM in experiment [5]; more than 1000 nM in experiment [6]. The IC50 in experiment [7] and in experiment [8] was more than 1000 nM in each case.

For `[2H]C([2H])([2H])NC(=O)c1cnc(NC(=O)C2CC2)cc1Nc1nccc2c1N(C)Cc1nccnc1-2` [Compound 14, 6-(cyclopropanecarboxamido)-N-(methyl-d3)-4-((6-methyl-5,6-dihydropyrazino[2,3-c][1,7]naphthyridin-7-yl)amino)nicotinamide], the figures for the IC50 in experiment [2], in experiment [3] and in experiment [5] were less than 30 nM, less than 30 nM and more than 1000 nM, respectively.

With `CNC(=O)c1cnc(NC(=O)C2CC2)cc1Nc1cccc2c1N(C)Cc1cccnc1-2` [Compound 15, 6-(cyclopropanecarboxamido)-N-methyl-4-((6-methyl-5,6-dihydrobenzo[h][1,6]naphthyridin-7-yl)amino)nicotinamide], the IC50 was 30 to 300 nM in experiment [1], less than 30 nM in experiment [2], less than 30 nM in experiment [3] and more than 1000 nM in experiment [5].

Turning to `[2H]C([2H])([2H])NC(=O)c1cnc(NC(=O)C2CC2)cc1Nc1nccc2c1N(C)Cc1cccnc1-2` [Compound 19, 6-(cyclopropanecarboxamido)-N-(methyl-d3)-4-((6-methyl-5,6-dihydropyrido[3,4-h][1,6]naphthyridin-7-yl)amino)nicotinamide], the IC50 in experiment [1] was 300 to 1000 nM; in experiment [2], less than 30 nM; in experiment [3], less than 30 nM; in experiment [5] it was more than 1000 nM.

With `[2H]C([2H])([2H])NC(=O)c1cnc(NC(=O)C2CC2)cc1Nc1cccc2c1N(C)C([2H])([2H])c1cccnc1-2` [Compound 20, 6-(cyclopropanecarboxamido)-N-(methyl-d3)-4-((6-methyl-5,6-dihydrobenzo[h][1,6]naphthyridin-7-yl-5,5-d2)amino)nicotinamide], the IC50 was 30 to 300 nM in experiment [1], less than 30 nM in experiment [2], less than 30 nM in experiment [3] and more than 1000 nM in experiment [5].

Turning to `[2H]C([2H])([2H])NC(=O)c1nnc(NC(=O)C2CC2)cc1Nc1cccc2c1N(C)C([2H])([2H])c1cc(F)cnc1-2` [Compound 21, 6-(cyclopropanecarboxamido)-4-((3-fluoro-6-methyl-5,6-dihydrobenzo[h][1,6]naphthyridin-7-yl-5,5-d2)amino)-N-(methyl-d3)pyridazine-3-carboxamide], the IC50 is 30 to 300 nM in experiment [1], less than 30 nM in experiment [2], 30 to 300 nM in experiment [3] and 300 to 1000 nM in experiment [5].

For the compound `[2H]C([2H])([2H])NC(=O)c1cnc(NC(=O)C2CC2)cc1Nc1cccc2c1N(C)C([2H])([2H])c1cc(F)cnc1-2` [Compound 22, 6-(cyclopropanecarboxamido)-4-((3-fluoro-6-methyl-5,6-dihydrobenzo[h][1,6]naphthyridin-7-yl-5,5-d2)amino)-N-(methyl-d3)nicotinamide], the IC50 is less than 30 nM in experiment [2] and 30 to 300 nM in experiment [3].

Consider `[2H]C([2H])([2H])NC(=O)c1nnc(NC(=O)C2CC2)cc1Nc1cccc2c1N(C)C([2H])([2H])c1ccc(C)nc1-2` [Compound 23, 6-(cyclopropanecarboxamido)-4-((2,6-dimethyl-5,6-dihydrobenzo[h][1,6]naphthyridin-7-yl-5,5-d2)amino)-N-(methyl-d3)pyridazine-3-carboxamide], for which the IC50 in experiment [1] is 30 to 300 nM; in experiment [2], less than 30 nM; in experiment [3], less than 30 nM; in experiment [5], more than 1000 nM.

Consider `[2H]C([2H])([2H])NC(=O)c1cnc(NC(=O)C2CC2)cc1Nc1cccc2c1N(C)C([2H])([2H])c1ccc(C)nc1-2` [Compound 24, 6-(cyclopropanecarboxamido)-4-((2,6-dimethyl-5,6-dihydrobenzo[h][1,6]naphthyridin-7-yl-5,5-d2)amino)-N-(methyl-d3)nicotinamide], for which the IC50 in experiment [1] is more than 1000 nM; in experiment [2], less than 30 nM; in experiment [3], 30 to 300 nM; in experiment [5], more than 1000 nM.

For `[2H]C([2H])([2H])NC(=O)c1cnc(NC(=O)C2CC2)cc1Nc1cccc2c1N(C)C([2H])([2H])c1ccc(C(F)(F)F)nc1-2` [Compound 25, 6-(cyclopropanecarboxamido)-N-(methyl-d3)-4-((6-methyl-2-(trifluoromethyl)-5,6-dihydrobenzo[h][1,6]naphthyridin-7-yl-5,5-d2)amino)nicotinamide], the values for the IC50 in experiment [2] and in experiment [3] were 30 to 300 nM and 300 to 1000 nM, respectively.

As for `[2H]C([2H])([2H])NC(=O)c1nnc(NC(=O)C2CC2)cc1Nc1cccc2c1N(C)C([2H])([2H])c1ccc(C(F)(F)F)nc1-2` [Compound 26, 6-(cyclopropanecarboxamido)-N-(methyl-d3)-4-((6-methyl-2-(trifluoromethyl)-5,6-dihydrobenzo[h][1,6]naphthyridin-7-yl-5,5-d2)amino)pyridazine-3-carboxamide], the IC50 in experiment [1] is 30 to 300 nM; in experiment [2], 300 to 1000 nM; in experiment [3] it was more than 1000 nM; in experiment [5], more than 1000 nM.
